Assay results taken from PubChem BioAssay (NCI).
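Protocol summary: plate cells (96-well), add compound at 5 concentrations, incubate 48 h, interpolate endpoints linearly. TGI marks complete inhibition of growth.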

How the values were obtained:
Experiment in all cases: NCI tumour cell line growth inhibition, 48 h
MCF7 breast = test system: MCF7 breast
SW-620 colon = test system: SW-620 colon
786-0 renal = test system: 786-0 renal
IGROV1 ovarian = test system: IGROV1 ovarian
NCI-H460 lung = test system: NCI-H460 lung
RPMI-8226 leukemia = test system: RPMI-8226 leukemia
SK-MEL-2 melanoma = test system: SK-MEL-2 melanoma
SF-539 CNS = test system: SF-539 CNS
HT29 colon = test system: HT29 colon
T-47D breast = test system: T-47D breast
NCI-H522 lung = test system: NCI-H522 lung
HOP-92 NSCLC = test system: HOP-92 NSCLC
SF-295 CNS = test system: SF-295 CNS
HOP-62 NSCLC = test system: HOP-62 NSCLC
SNB-19 CNS = test system: SNB-19 CNS
MDA-MB-231 breast = test system: MDA-MB-231 breast
NCI-H23 lung = test system: NCI-H23 lung
U251 CNS = test system: U251 CNS
HL-60(TB) leukemia = test system: HL-60(TB) leukemia
CAKI-1 renal = test system: CAKI-1 renal
TK-10 renal = test system: TK-10 renal
SN12C renal = test system: SN12C renal
HCT-116 colon = test system: HCT-116 colon
COLO 205 colon = test system: COLO 205 colon
CCRF-CEM leukemia = test system: CCRF-CEM leukemia
MDA-N = test system: MDA-N
SF-268 CNS = test system: SF-268 CNS
UO-31 renal = test system: UO-31 renal
OVCAR-8 ovarian = test system: OVCAR-8 ovarian
PC-3 prostate = test system: PC-3 prostate
K-562 leukemia = test system: K-562 leukemia
ACHN renal = test system: ACHN renal
SR leukemia = test system: SR leukemia
MDA-MB-435 = test system: MDA-MB-435
UACC-62 melanoma = test system: UACC-62 melanoma
UACC-257 melanoma = test system: UACC-257 melanoma
MOLT-4 leukemia = test system: MOLT-4 leukemia
HCT-15 colon = test system: HCT-15 colon
NCI/ADR-RES ovarian = test system: NCI/ADR-RES ovarian
HS 578T breast = test system: HS 578T breast
BT-549 breast = test system: BT-549 breast
M14 melanoma = test system: M14 melanoma
OVCAR-5 ovarian = test system: OVCAR-5 ovarian
EKVX NSCLC = test system: EKVX NSCLC
A549 NSCLC = test system: A549 NSCLC
DU-145 prostate = test system: DU-145 prostate
MALME-3M melanoma = test system: MALME-3M melanoma
SK-OV-3 ovarian = test system: SK-OV-3 ovarian
KM12 colon = test system: KM12 colon
OVCAR-3 ovarian = test system: OVCAR-3 ovarian
OVCAR-4 ovarian = test system: OVCAR-4 ovarian
HCC-2998 colon = test system: HCC-2998 colon
RXF 393 renal = test system: RXF 393 renal
NCI-H226 lung = test system: NCI-H226 lung
SNB-75 CNS = test system: SNB-75 CNS
A498 renal = test system: A498 renal
LOX IMVI melanoma = test system: LOX IMVI melanoma
SK-MEL-5 melanoma = test system: SK-MEL-5 melanoma
SK-MEL-28 melanoma = test system: SK-MEL-28 melanoma

With Nc1cc(CO)cc(Nc2nc3ccc(Cl)cc3c3[nH]c4ccccc4c23)c1 the TGI (MCF7 breast) was 3.92 µM, the TGI (SW-620 colon) was 29.3 µM and the TGI (786-0 renal) was 6.83 µM. For the same compound, the TGI (IGROV1 ovarian) was 8.93 µM, the TGI (NCI-H460 lung) was 6.56 µM and the TGI (RPMI-8226 leukemia) was 9.78 µM. For the same compound, the TGI (SK-MEL-2 melanoma) was 15 µM, the TGI (SF-539 CNS) was 14.1 µM and the TGI (HT29 colon) was 11.7 µM. It also gave a TGI (T-47D breast) of 20.8 µM, a TGI (NCI-H522 lung) of 12.7 µM and a TGI (HOP-92 NSCLC) of 9.11 µM. The TGI (SF-295 CNS) was 15 µM, the TGI (HOP-62 NSCLC) was 27.6 µM and the TGI (SNB-19 CNS) was 44.9 µM. The TGI (MDA-MB-231 breast) was 12 µM, the TGI (NCI-H23 lung) was 40 µM and the TGI (U251 CNS) was 23.9 µM. It also gave a TGI (HL-60(TB) leukemia) of 52.7 µM, a TGI (CAKI-1 renal) of 8.33 µM and a TGI (TK-10 renal) of 21.3 µM. For the same compound, the TGI (SN12C renal) was 12.9 µM, the TGI (HCT-116 colon) was 25.4 µM and the TGI (COLO 205 colon) was 11.6 µM. The TGI (CCRF-CEM leukemia) was 23.8 µM, the TGI (MDA-N) was 21.1 µM and the TGI (SF-268 CNS) was 10.5 µM. It also gave a TGI (UO-31 renal) of 11.6 µM, a TGI (OVCAR-8 ovarian) of 18.5 µM and a TGI (PC-3 prostate) of 19.1 µM. For the same compound, the TGI (K-562 leukemia) was 27.3 µM, the TGI (ACHN renal) was 15 µM and the TGI (SR leukemia) was 7.33 µM. For the same compound, the TGI (MDA-MB-435) was 15.3 µM, the TGI (UACC-62 melanoma) was 5.55 µM and the TGI (UACC-257 melanoma) was 23.2 µM. For the same compound, the TGI (MOLT-4 leukemia) was 32.2 µM, the TGI (HCT-15 colon) was 18.6 µM and the TGI (NCI/ADR-RES ovarian) was 42.5 µM. For the same compound, the TGI (HS 578T breast) was 36.5 µM, the TGI (BT-549 breast) was 24.6 µM and the TGI (M14 melanoma) was 16.7 µM. For the same compound, the TGI (OVCAR-5 ovarian) was 17.6 µM, the TGI (EKVX NSCLC) was 15.1 µM and the TGI (A549 NSCLC) was 57.3 µM. The TGI (DU-145 prostate) was 15.2 µM, the TGI (MALME-3M melanoma) was 15.8 µM and the TGI (SK-OV-3 ovarian) was 22.2 µM. For the same compound, the TGI (KM12 colon) was 18.6 µM.
In the case of O=C(O)c1c2c(cc3c1CC1(Cc4ccccc4C1)C3)CCC2, the TGI (MCF7 breast) is reported as over 100 µM, the TGI (SW-620 colon) is reported as over 100 µM and the TGI (786-0 renal) is reported as over 100 µM. It also gave a TGI (IGROV1 ovarian) of over 100 µM, a TGI (OVCAR-3 ovarian) of over 100 µM and a TGI (NCI-H460 lung) of over 100 µM. It also gave a TGI (RPMI-8226 leukemia) of over 100 µM, a TGI (SF-539 CNS) of over 100 µM and a TGI (HT29 colon) of over 100 µM. For the same compound, the TGI (T-47D breast) was over 100 µM, the TGI (NCI-H522 lung) was over 100 µM and the TGI (HOP-92 NSCLC) was 52.5 µM. For the same compound, the TGI (OVCAR-4 ovarian) was over 100 µM, the TGI (SF-295 CNS) was over 100 µM and the TGI (HOP-62 NSCLC) was over 100 µM. The TGI (MDA-MB-231 breast) was over 100 µM, the TGI (HCC-2998 colon) was over 100 µM and the TGI (NCI-H23 lung) was over 100 µM. For the same compound, the TGI (U251 CNS) was over 100 µM, the TGI (HL-60(TB) leukemia) was over 100 µM and the TGI (RXF 393 renal) was over 100 µM. It also gave a TGI (CAKI-1 renal) of over 100 µM, a TGI (TK-10 renal) of over 100 µM and a TGI (SN12C renal) of over 100 µM. The TGI (NCI-H226 lung) was over 100 µM, the TGI (COLO 205 colon) was over 100 µM and the TGI (CCRF-CEM leukemia) was 66.7 µM. The TGI (MDA-N) was over 100 µM, the TGI (SNB-75 CNS) was over 100 µM and the TGI (SF-268 CNS) was over 100 µM. It also gave a TGI (UO-31 renal) of over 100 µM, a TGI (OVCAR-8 ovarian) of over 100 µM and a TGI (PC-3 prostate) of over 100 µM. It also gave a TGI (K-562 leukemia) of over 100 µM, a TGI (ACHN renal) of over 100 µM and a TGI (SR leukemia) of over 100 µM. The TGI (MDA-MB-435) was over 100 µM, the TGI (UACC-62 melanoma) was over 100 µM and the TGI (UACC-257 melanoma) was over 100 µM. It also gave a TGI (A498 renal) of over 100 µM, a TGI (MOLT-4 leukemia) of over 100 µM and a TGI (HCT-15 colon) of over 100 µM. For the same compound, the TGI (NCI/ADR-RES ovarian) was over 100 µM, the TGI (LOX IMVI melanoma) was 74.4 µM and the TGI (HS 578T breast) was over 100 µM. It also gave a TGI (SK-MEL-5 melanoma) of over 100 µM, a TGI (BT-549 breast) of over 100 µM and a TGI (OVCAR-5 ovarian) of over 100 µM. It also gave a TGI (EKVX NSCLC) of over 100 µM, a TGI (A549 NSCLC) of over 100 µM and a TGI (DU-145 prostate) of over 100 µM. For the same compound, the TGI (SK-MEL-28 melanoma) was over 100 µM, the TGI (MALME-3M melanoma) was over 100 µM and the TGI (SK-OV-3 ovarian) was over 100 µM. The TGI (KM12 colon) was over 100 µM.
